Results: ChEMBL document CHEMBL3885861, “Open TG-GATES”

Species: Rattus norvegicus
Assay: Open TG-GATES - Regimen: Single
Type: toxicity, organism-based, Sprague-Dawley
Set-up: regimen Single, gender Male, age 6 weeks
Settings: in vivo, iv, route intravenous injection; for MCV / Mono / Neu / PT / Plat / RBC / Ret / WBC / APTT / Bas / Eos / Fbg / Hb / Ht / Lym / MCH / MCHC: tissue Blood; for KIDNEY_L / KIDNEY_R / KIDNEY_TOTAL: tissue Kidney; for LIVER: tissue Liver; for A/G / ALP / ALT / AST / BUN / CRE / Ca / Cl / DBIL / GLC / IP / K / LDH / Na / PL / RALB / TBIL / TC / TG / TP / gamma-GTP: tissue Plasma
[1] = 0 mg/kg, 24 h, dose level Control

Compound: C[C@@H]1[C@H](O)[C@@H](C)/C=C/C=C/C=C/C=C/C=C/C=C/C=C/[C@H](O[C@@H]2O[C@H](C)[C@@H](O)[C@H](N)[C@@H]2O)C[C@@H]2O[C@](O)(C[C@@H](O)C[C@@H](O)[C@H](O)CC[C@@H](O)C[C@@H](O)CC(=O)O[C@H]1C)C[C@H](O)[C@H]2C(=O)O [AMPHOTERICIN B]
- MCV [1]: 62.4 fL
- Mono [1]: 2.2%
- Neu [1]: 17%
- PT [1]: 12.3 s
- Plat [1]: 145.5 x10_4/uL
- RBC [1]: 621.8 x10_4/ul
- Ret [1]: 7.1%
- WBC [1]: 93.8 x10_2/uL
- KIDNEY_L [1]: 1 g
- KIDNEY_R [1]: 1 g
- KIDNEY_TOTAL [1]: 1.9 g
- LIVER [1]: 10.4 g
- A/G [1]: 0.9
- ALP [1]: 1818.6 IU/L
- ALT [1]: 37.6 IU/L
- AST [1]: 66.8 IU/L
- BUN [1]: 15.2 mg/dL
- CRE [1]: 0.2 mg/dL
- Ca [1]: 11 mg/dL
- Cl [1]: 105.6 meq/L
- DBIL [1]: 0.02 mg/dL
- GLC [1]: 169 mg/dL
- IP [1]: 7.7 mg/dL
- K [1]: 3.8 meq/L
- LDH [1]: 53.2 IU/L
- Na [1]: 143.4 meq/L
- PL [1]: 133.4 mg/dL
- RALB [1]: 2.6 g/dL
- TBIL [1]: 0.054 mg/dL
- TC [1]: 74.2 mg/dL
- TG [1]: 96.8 mg/dL
- TP [1]: 5.8 g/dL
- gamma-GTP [1]: 1.6 IU/L
- TERMINAL_BW (1 mg/kg, 3 h, dose level Low): 214.2 g
- APTT (1 mg/kg, 3 h, dose level Low): 16.8 s
- Bas (1 mg/kg, 3 h, dose level Low): 0%
- Eos (1 mg/kg, 3 h, dose level Low): 0.6%
- Fbg (1 mg/kg, 3 h, dose level Low): 257 mg/dL
- Hb (1 mg/kg, 3 h, dose level Low): 13.6 g/dL
- Ht (1 mg/kg, 3 h, dose level Low): 39.9%
- Lym (1 mg/kg, 3 h, dose level Low): 74.6%
- MCH (1 mg/kg, 3 h, dose level Low): 21.2 pg
- MCHC (1 mg/kg, 3 h, dose level Low): 34.1%
- MCV (1 mg/kg, 3 h, dose level Low): 62 fL
- Mono (1 mg/kg, 3 h, dose level Low): 3.2%
- Neu (1 mg/kg, 3 h, dose level Low): 20.6%
- PT (1 mg/kg, 3 h, dose level Low): 13 s
- Plat (1 mg/kg, 3 h, dose level Low): 139.1 x10_4/uL
- RBC (1 mg/kg, 3 h, dose level Low): 644.6 x10_4/ul
- Ret (1 mg/kg, 3 h, dose level Low): 7.7%
- WBC (1 mg/kg, 3 h, dose level Low): 97.1 x10_2/uL
- KIDNEY_L (1 mg/kg, 3 h, dose level Low): 1 g
- KIDNEY_R (1 mg/kg, 3 h, dose level Low): 1 g
- KIDNEY_TOTAL (1 mg/kg, 3 h, dose level Low): 1.9 g
- LIVER (1 mg/kg, 3 h, dose level Low): 9.8 g
- A/G (1 mg/kg, 3 h, dose level Low): 0.9
- ALP (1 mg/kg, 3 h, dose level Low): 1691 IU/L
- ALT (1 mg/kg, 3 h, dose level Low): 40 IU/L
- AST (1 mg/kg, 3 h, dose level Low): 85.4 IU/L
- BUN (1 mg/kg, 3 h, dose level Low): 18.8 mg/dL
- CRE (1 mg/kg, 3 h, dose level Low): 0.2 mg/dL
- Ca (1 mg/kg, 3 h, dose level Low): 10.9 mg/dL
- Cl (1 mg/kg, 3 h, dose level Low): 106.6 meq/L
- DBIL (1 mg/kg, 3 h, dose level Low): 0.018 mg/dL
- GLC (1 mg/kg, 3 h, dose level Low): 173.4 mg/dL
- IP (1 mg/kg, 3 h, dose level Low): 8.6 mg/dL
- K (1 mg/kg, 3 h, dose level Low): 3.9 meq/L
- LDH (1 mg/kg, 3 h, dose level Low): 58.8 IU/L
- Na (1 mg/kg, 3 h, dose level Low): 143.2 meq/L
- PL (1 mg/kg, 3 h, dose level Low): 129.4 mg/dL
- RALB (1 mg/kg, 3 h, dose level Low): 2.6 g/dL
- TBIL (1 mg/kg, 3 h, dose level Low): 0.058 mg/dL
- TC (1 mg/kg, 3 h, dose level Low): 74 mg/dL
- TG (1 mg/kg, 3 h, dose level Low): 53.8 mg/dL
- TP (1 mg/kg, 3 h, dose level Low): 5.6 g/dL
- gamma-GTP (1 mg/kg, 3 h, dose level Low): 2 IU/L
- TERMINAL_BW (1 mg/kg, 6 h, dose level Low): 208.2 g
- APTT (1 mg/kg, 6 h, dose level Low): 15.4 s
- Bas (1 mg/kg, 6 h, dose level Low): 0%
- Eos (1 mg/kg, 6 h, dose level Low): 0.8%
- Fbg (1 mg/kg, 6 h, dose level Low): 286.6 mg/dL
- Hb (1 mg/kg, 6 h, dose level Low): 13.3 g/dL
- Ht (1 mg/kg, 6 h, dose level Low): 39.5%
- Lym (1 mg/kg, 6 h, dose level Low): 68.6%
- MCH (1 mg/kg, 6 h, dose level Low): 20.9 pg
- MCHC (1 mg/kg, 6 h, dose level Low): 33.7%
- MCV (1 mg/kg, 6 h, dose level Low): 62 fL
- Mono (1 mg/kg, 6 h, dose level Low): 2.8%
- Neu (1 mg/kg, 6 h, dose level Low): 27%
- PT (1 mg/kg, 6 h, dose level Low): 12.8 s
- Plat (1 mg/kg, 6 h, dose level Low): 135.3 x10_4/uL
- RBC (1 mg/kg, 6 h, dose level Low): 636.4 x10_4/ul
- Ret (1 mg/kg, 6 h, dose level Low): 7.9%
- WBC (1 mg/kg, 6 h, dose level Low): 98.4 x10_2/uL
- KIDNEY_L (1 mg/kg, 6 h, dose level Low): 1 g
- KIDNEY_R (1 mg/kg, 6 h, dose level Low): 0.9 g
- KIDNEY_TOTAL (1 mg/kg, 6 h, dose level Low): 1.9 g
- LIVER (1 mg/kg, 6 h, dose level Low): 9 g
- A/G (1 mg/kg, 6 h, dose level Low): 0.8
- ALP (1 mg/kg, 6 h, dose level Low): 1534.4 IU/L
- ALT (1 mg/kg, 6 h, dose level Low): 38.2 IU/L
- AST (1 mg/kg, 6 h, dose level Low): 70.8 IU/L
- BUN (1 mg/kg, 6 h, dose level Low): 16.4 mg/dL
- CRE (1 mg/kg, 6 h, dose level Low): 0.1 mg/dL
- Ca (1 mg/kg, 6 h, dose level Low): 10.7 mg/dL
- Cl (1 mg/kg, 6 h, dose level Low): 106.6 meq/L
- DBIL (1 mg/kg, 6 h, dose level Low): 0.016 mg/dL
- GLC (1 mg/kg, 6 h, dose level Low): 180 mg/dL
- IP (1 mg/kg, 6 h, dose level Low): 10.1 mg/dL
- K (1 mg/kg, 6 h, dose level Low): 3.4 meq/L
- LDH (1 mg/kg, 6 h, dose level Low): 57.2 IU/L
- Na (1 mg/kg, 6 h, dose level Low): 144.6 meq/L
- PL (1 mg/kg, 6 h, dose level Low): 135 mg/dL
- RALB (1 mg/kg, 6 h, dose level Low): 2.6 g/dL
- TBIL (1 mg/kg, 6 h, dose level Low): 0.062 mg/dL
- TC (1 mg/kg, 6 h, dose level Low): 83.8 mg/dL
- TG (1 mg/kg, 6 h, dose level Low): 41.4 mg/dL
- TP (1 mg/kg, 6 h, dose level Low): 5.7 g/dL
- gamma-GTP (1 mg/kg, 6 h, dose level Low): 1.4 IU/L
- TERMINAL_BW (1 mg/kg, 9 h, dose level Low): 208.6 g
- APTT (1 mg/kg, 9 h, dose level Low): 16.5 s
- Bas (1 mg/kg, 9 h, dose level Low): 0%
- Eos (1 mg/kg, 9 h, dose level Low): 1%
- Fbg (1 mg/kg, 9 h, dose level Low): 296.2 mg/dL
- Hb (1 mg/kg, 9 h, dose level Low): 13.2 g/dL
- Ht (1 mg/kg, 9 h, dose level Low): 38.5%
- Lym (1 mg/kg, 9 h, dose level Low): 71.4%
- MCH (1 mg/kg, 9 h, dose level Low): 20.9 pg
- MCHC (1 mg/kg, 9 h, dose level Low): 34.2%
- MCV (1 mg/kg, 9 h, dose level Low): 61 fL
- Mono (1 mg/kg, 9 h, dose level Low): 1.8%
- Neu (1 mg/kg, 9 h, dose level Low): 25.4%
- PT (1 mg/kg, 9 h, dose level Low): 12.9 s
- Plat (1 mg/kg, 9 h, dose level Low): 132.4 x10_4/uL
- RBC (1 mg/kg, 9 h, dose level Low): 631.6 x10_4/ul
- Ret (1 mg/kg, 9 h, dose level Low): 7.9%
- WBC (1 mg/kg, 9 h, dose level Low): 97.1 x10_2/uL
- KIDNEY_L (1 mg/kg, 9 h, dose level Low): 0.9 g
- KIDNEY_R (1 mg/kg, 9 h, dose level Low): 0.9 g
- KIDNEY_TOTAL (1 mg/kg, 9 h, dose level Low): 1.9 g
